# Where two headings read alike, the source gives them in different places.
# How the values were obtained:
# [1] = tested on: total facultative anaerobic bacteria; assay: Gut microflora modulation in vivo, ileo-rectal contents of anastomosed piglets: total facultative anaerobic counts on Brucella agar; details: 300 ppm in feed; mean CFU per g ileal content dry matter; ten piglets; not significant
# Enterococcus spp = assay: Gut microflora modulation in vivo, ileo-rectal contents of anastomosed piglets: Enterococcus spp on Enterococci agar; details: 300 ppm in feed; ten piglets
# [2] = assay type: in vivo; details: for FCR (kg/kg) / Feed intake / DWG / DWG relative to basal diet A (100) / FCR relative to basal diet A (100) / Feed intake relative to basal diet A (100): 400 ppm in diet (mixture 1: 150 ppm); for FCR (kg/kg) / Feed intake: mean ± standard deviation of 3 determinations; for DWG: mean ± standard deviation of 19 determinations; for DWG relative to basal diet A (100) / FCR relative to basal diet A (100) / Feed intake relative to basal diet A (100): value in brackets, control A = (100); for improvement of feed conversion ratio versus controls: 400 ppm in diet
# [3] = tested on: total lactic acid bacteria; assay: Gut microflora modulation in vivo, ileo-rectal contents of anastomosed piglets: lactic acid bacteria on MRS agar; details: ten piglets
# Enterobacteriacae = assay: Gut microflora modulation in vivo, ileo-rectal contents of anastomosed piglets: Enterobacteriacae on V.R.B.D agar; details: mean CFU per g ileal content dry matter, ten piglets, not significant; for total Enterobacteriacae counts decreased relative to the control: 300 ppm in feed
# Escherichia coli = assay: Gut microflora modulation in vivo, ileo-rectal contents of anastomosed piglets: Escherichia coli counts; details: mean CFU per g ileal content dry matter, ten piglets, not significant
# Staphylococcus spp = assay: Gut microflora modulation in vivo, ileo-rectal contents of anastomosed piglets: Staphylococcus spp on Baird Parker agar; details: 300 ppm in feed; ten piglets
# [4] = 300 ppm in feed, mean CFU per g ileal content dry matter, not significant
SMILES,total facultative anaerobic bacteria counts increased relative to the control [1] [%],effect on the population of Enterococcus spp (in words) (Enterococcus spp),FCR (kg/kg) ([2]; day 0-14),Feed intake ([2]; day 0-14) [g/day],DWG ([2]; day 0-14) [g],DWG relative to basal diet A (100) ([2]; day 0-14),FCR relative to basal diet A (100) ([2]; day 0-14),Feed intake relative to basal diet A (100) ([2]; day 0-14),FCR (kg/kg) ([2]; day 0-29),Feed intake ([2]; day 0-29) [g/day],DWG ([2]; day 0-29) [g],DWG relative to basal diet A (100) ([2]; day 0-29),FCR relative to basal diet A (100) ([2]; day 0-29),Feed intake relative to basal diet A (100) ([2]; day 0-29),total Enterobacteriacae counts decreased relative to the control (Enterobacteriacae) [%],also measured
"Cc1cccc(C)c1O [2,6-dimethylphenol]",37,negative effect,1.886 ± 0.06,350 ± 5,186 ± 45,(103),(99),(103),1.914 ± 0.053,694 ± 27,272 ± 53,(105),(100),(106),68,effect on the total lactic acid bacteria (in words) ([3]; 300 ppm in feed): neutral effect
Oc1ccc(CC=Cc2ccccc2)cc1 [4-cinnamylphenol],,,1.82 ± 0.058,345 ± 42,193 ± 41,(107),(96),(102),1.953 ± 0.048,670 ± 72,262 ± 53,(101),(102),(102),36,"Escherichia coli counts decreased relative to the control (Escherichia coli; 300 ppm in feed): 42%; total lactic acid bacteria counts decreased relative to the control [3, 4]: 22%"
O=C1/C(=C/c2ccc(O)c(O)c2)Oc2cc(O)cc(O)c21 [aureusidin],,,1.965 ± 0.21,332 ± 52,189 ± 61,(104),(103),(98),1.968 ± 0.018,686 ± 72,275 ± 48,(106),(103),(104),,"Escherichia coli counts decreased relative to the control (Escherichia coli; 150 ppm in feed): 66%; total lactic acid bacteria counts decreased relative to the control ([3]; 150 ppm in feed, mean CFU per g ileal content dry matter, not significant): 17%; Enterobacteriacae counts decreased relative to the control (Enterobacteriacae; 150 ppm in feed): 30%"
"CCCc1ccc(O)c(OC)c1 [dihydroeugenol, 2-methoxy-4-propylphenol]",12,neutral effect,1.776 ± 0.034,364 ± 46,208 ± 39,(115),(93),(107),1.88 ± 0.08,708 ± 85,285 ± 33,(110),(98),(108),67,"effect on the population of Staphylococcus spp (in words) (Staphylococcus spp): neutral effect; improvement of feed conversion ratio versus controls ([2]; first 14 days of the experiment): 7%; improvement of feed conversion ratio versus controls ([2]; whole observation period (29 days)): 2%; improvement of the daily weight gain comparatively to the non supplemented control ([2]; whole observation period (29 days), dihydroeugenol 400 ppm, mixture 1 150 ppm): 10%; total lactic acid bacteria counts increased relative to the control [3, 4]: 26%"

# — patent US20100119646A1, “Dihydroeugenol as Additive for feed” (DSM IP ASSETS B.V., priority 2007, published 2010)
